Laboratory results: patent publication US8507546B2, “Use of inhibitors of scavenger receptor class proteins for the treatment of infectious diseases” (Instituto de Medicina Molecular, Faculdade de Medicina da …, priority 2006, dated 2013)

Experiments:
P. berghei ANKA = test: Liver infection in mice, parasite 18S RNA by Real-Time PCR; format: in vivo, Plasmodium berghei; details: C57Bl/6 mice
Procedure: Ezeterol tablets were used to prepare a 0.3 mg/ml solution of Ezetimibe in water. Experimental C5781/6 mice were treated by oral gavage with 200 μl of Ezetimibe solution (3 mg/kg) 2 hours prior to infection with sporozoites. To control mice, 200 μl of water were administered by oral gavage. Infection with Plasmodium berghei was performed by i.v. injection of 30 000 sporozoites (see FIG. 5). For BLT-1 treatment of C57Bl/6 mice (male, 6-8 weeks old), intra-peritoneal injections of 50 mg/kg of BLT-1 in DMSO were carried out prior to infection. Control mice were treated with DMSO only. Two hours later, mice were infected by intravenous injection with 3×10^4 P. berghei sporozoites (see FIG. 12).
Mice were sacrificed 40-42 hours after infection and their livers collected. Livers were placed in 4 ml cold lysis buffer (4 M guanidine thio-cyanate, 25 mM sodium citrate, pH 7.0 and 0.5% sarcosyl) and homogenised on ice with a tissue tearer. 1 ml aliquots of liver homogenate were kept at −80° C. until RNA extraction. Total RNA was extracted from 50 μl of liver homogenate with Qiagen's RNeasy RNA extraction kit following the instructions of the manufacturer. […]
P. berghei ANKA load and ScarB1 expression in the liver was quantified by Real-Time PCR using the SYBR Green Mix (Applied Biosystems) and primers designed for the 18S RNA of the parasite and primers for ScarB1. […]

P. yoelii = P. yoelii EEF development in Hepa 1-6 cells; format: cell-based, Plasmodium yoelii; details: 10 μM; full 24 hours of infection, first 2 hours only, or 2 hours after infection until 24 hours
Procedure: Hepa 1-6 cells were cultured in complete DMEM medium (Gibco/Invitrogen) supplemented with 10% fetal calf serum (Gibco/Invitrogen) and 1% penicillin/streptomycin (Gibco/Invitrogen) incubated at 37° C. and 5% CO2. Sporozoites were obtained from Anopheles stephensi mosquitoes infected with P. berghei ANKA or P. yoelii. Salivary glands were dissected and collected in RPMI medium (GIBCO) on ice. Collected tissues were gently ground in the medium to release sporozoites. Tissue fragments were removed by centrifugation at 40×g for 3 min, and sporozoites were collected from the supernatant. Cells were treated with 10 μM BLT-1 for different time points: for the full 24 hours of infection with P. yoelii (1×10^5 sporozoites), only during the first 2 hours of infection, or for the time of 2 hours after infection until evaluation of infection at 24 hours (see FIG. 15).

P. berghei = test: EEF development in mouse primary hepatocytes infected with P. berghei sporozoites; format: cell-based, Plasmodium berghei; details: 10 μM; full 24 hours of infection, first 2 hours only, or 2 hours after infection until 24 hours
Procedure: C57B1/6 freshly isolated mouse primary hepatocytes (1×10^5 cells per well) were seeded in 700 μl of Williams E medium supplemented with 1× glutamax (Gibco/Invitrogen), 4% fetal calf serum (Gibco/Invitrogen) and 1% penicillin/streptomycin (Gibco/Invitrogen) in 24 well plates incubated at 37° C. 5% CO2. After two days cells were treated with 10 μM BLT-1 for different time points: for the full 24 hours of infection with P. berghei (5×10^5 sporozoites), only during the first 2 hours of infection, or for the time of 2 hours after infection until evaluation at 24 hours. (see FIG. 14)

Plasmodium berghei ANKA = test: Inhibition of EEF development in Huh-7 human hepatoma cells infected with sporozoites (immunofluorescence microscopy); format: cell-based; details: compound at 8 μM, 1.6 μM, 320 nM, 64 nM, 1 h before infection with 10,000 sporozoites per well
Source text: To model this infection, the inventors have developed an assay monitoring infection and maturation of Plasmodium berghei ANKA, a mouse-pathogenic close relative of the human-pathogenic Plasmodium falciparum strain, in cultured human hepatoma cells. Huh human hepatoma cells, were cultivated in RPMI (Gibco/Invitrogen) medium containing 10% FBS, 1% non-essential amino acid solution (Gibco/Invitrogen), 1% penicillin/streptomycin solution (Gibco/Invitrogen), 1% glutamine (Gibco/Invitrogen) and 1% Hepes pH 8 (Gibco/Invitrogen). 4000-6000 cells per well were seeded in a volume of 100 μl/well. Sporozoites were obtained from Anopheles stephensi mosquitoes infected with P. berghei ANKA or P. yoelii. Salivary glands were dissected and collected in RPMI medium (GIBCO) on ice. Collected tissues were gently ground in the medium to release sporozoites. Tissue fragments were removed by centrifugation at 40×g for 3 min, and sporozoites were collected from the supernatant. Blt-1, Blt-2, and Blt-4 were purchased from ChemBridge Corporation (San Diego, USA). Ezetimibe (for chemical structure see FIG. 6 and structure (XXVI)) was derived from powdered Ezeterol tablets (Essex Pharma, UK). Each compound was dissolved in DMSO at a final concentration of 50 mM. 48 hours after seeding of 6000 Huh-7 cells per well, growth medium was replaced by fresh complete culture medium, containing the compounds in 4 different concentrations, generated by dilution series of the compound stock solutions in complete growth medium: 8 μM; 1.6 μM; 320 nM; 64 nM. […] Cells were imaged using a fully automated fluorescence microscope from MDC (Molecular Devices Corporation, CA, USA). […] Numerical readouts comprised of cell proliferation as measured by the number of nuclei per imaged field (Hoechst staining), cell confluency as measured by the percentage of the imaged field covered by cells (actin/Phalloidin staining), and number of EEFs per imaged field. […] Objects in a size range of 16-150 pixels were quantified. […]

SMILES	infection rate for liver in mice (P. berghei ANKA; 50 mg/kg intra-peritoneal in DMSO two hours before i.v. infection with 3×10^4 P. berghei sporozoites)	P. Yoelii EEF development in Hepa 1-6 cells (P. yoelii)	EEF development in Mouse Primary Hepatocytes (P. berghei)	EEF (Exo-Erythrocytic Forms) development, EEF number (Plasmodium berghei ANKA)	infection rate for liver in mice (P. berghei ANKA; 3 mg/kg oral gavage 2 hours prior to i.v. infection with 30 000 sporozoites, livers 40-42 hours after infection)
CCCCCCC1CCC/C1=N\NC(N)=S (stereo not shown) [BLT-1]	reduces infection rate for liver	Inhibition of P. Yoelii EEF development	Inhibition of EEF development	Inhibition of EEF (Exo-Erythrocytic Forms) development	–
COc1ccccc1NC(=O)Nc1ccc2ccccc2c1 [BLT-4]	–	–	–	Inhibition of EEF development	–
O=C1[C@H](CC[C@H](O)c2ccc(F)cc2)[C@@H](c2ccc(O)cc2)N1c1ccc(F)cc1 [Ezetimibe]	–	–	–	Inhibition of EEF development	reduces infection rate for liver
